Laboratory results from US11484539B2, “Compounds and their uses for alleviating menopause-associated symptoms” (Estetra SPRL, priority 2018, dated 2022).

Tested on: post-menopausal women
Experiment: Weekly severity of moderate to severe VMS, dose-finding study
Type: in vivo
From the text: To determine the Minimum Effective Dose (MED), firstly the selection criteria required that patients presented at least 7 moderate to severe VMS/day or at least 50 moderate to severe VMS/week in the week preceding randomization. Secondly, a placebo group was included in a double-blind fashion. Thirdly, the total patient number was such that statistical significance could be obtained between separate arms of the study. Fourthly, the absolute change from baseline in weekly frequency of moderate to severe VMS was taken into account. An analysis of covariance (ANCOVA) was performed based on the untransformed change in weekly frequency of moderate to severe VMS from baseline. Finally, the change in severity from baseline was evaluated. For this, the Severity Scoring System of VMS was documented by the subjects as follows: • a score of Mild (1) for a sensation of heat without sweating; • a score of Moderate (2) for a sensation of heat with sweating/the subject is able to continue activity; and • a score of Severe (3) for a sensation of heat with sweating/which causes cessation of activity.
In addition, a severity score of zero was attributed to the patients who have experienced a 100% VMS relief during a given week.
From these score records, the severity at baseline was calculated by taking into account only moderate and severe VMS, such that the total number of moderate VMS during the 7 days of the baseline week was multiplied by 2 and added to the total number of severe VMS during the 7 days of the baseline week multiplied by 3. This total was then divided by the total number of moderate and severe VMS during the baseline week.
The severity at weeks 4 and 12 was calculated using the following formula for each of these weeks: • the number of mild VMS during 7 days multiplied by 1; • the number of moderate VMS during 7 days multiplied by 2; • the number of severe VMS during 7 days multiplied by 3. and adding the 3 resulting numbers together before dividing this total by the total number of mild, moderate and severe VMS during the 7 days of the week.
This method was used to generate the data included in Example 1 further below, under section A. b) “VMS Severity”.
In order to better analyse the data recorded in this study, treatment groups have been compared using an ANCOVA (analysis of covariance) with respect to the change in severity of moderate to severe VMS from baseline to mild, moderate and severe VMS at week 4 and week 12 for each active treatment versus placebo. For women who experienced 100% VMS relief at week 4 and/or week 12, a value of zero was attributed. The ANCOVA model includes treatment (“trt1”) as a fixed effect and baseline (“base”) as a covariate. • b) Covariate significance

C[C@]12CC[C@@H]3c4ccc(O)cc4CC[C@H]3[C@@H]1[C@@H](O)[C@@H](O)[C@@H]2O [E4, 1,3,5 (10)-estratrien-3,15alpha,16alpha,17beta-tetrol]
Difference with placebo, LS adjusted mean, relative change in weekly severity of moderate to severe VMS (5 mg E4 vs placebo, week 12): 0.1149 | LS adjusted mean change from baseline in weekly severity of moderate to severe VMS (10 mg E4, week 4): −0.4825 | LS adjusted mean relative change from baseline in weekly severity of moderate to severe VMS (10 mg E4, week 4): −0.2016 | LS adjusted mean relative change from baseline in weekly severity of moderate to severe VMS (10 mg E4, week 12): −0.2862 | Mean change from baseline in weekly severity of moderate to severe VMS (10 mg E4 QD per os, week 1): −0.2028 | Relative change (% from baseline) in weekly severity of moderate to severe VMS, mean (10 mg E4 QD per os, week 1): −8% | Mean change from baseline in weekly severity of moderate to severe VMS (10 mg E4 QD per os, week 2): −0.3007 | Relative change (% from baseline) in weekly severity of moderate to severe VMS, mean (10 mg E4 QD per os, week 2): −13% | Mean change from baseline in weekly severity of moderate to severe VMS (10 mg E4 QD per os, week 3): −0.3983 | Relative change (% from baseline) in weekly severity of moderate to severe VMS, mean (10 mg E4 QD per os, week 3): −17% | Mean change from baseline in weekly severity of moderate to severe VMS (10 mg E4 QD per os, week 4): −0.4842 | Relative change (% from baseline) in weekly severity of moderate to severe VMS, mean (10 mg E4 QD per os, week 4): −20% | Mean change from baseline in weekly severity of moderate to severe VMS (10 mg E4 QD per os, week 5): −0.5107 | Relative change (% from baseline) in weekly severity of moderate to severe VMS, mean (10 mg E4 QD per os, week 5): −21% | Mean change from baseline in weekly severity of moderate to severe VMS (10 mg E4 QD per os, week 6): −0.6086 | Relative change (% from baseline) in weekly severity of moderate to severe VMS, mean (10 mg E4 QD per os, week 6): −26% | Mean change from baseline in weekly severity of moderate to severe VMS (10 mg E4 QD per os, week 7): −0.643 | Relative change (% from baseline) in weekly severity of moderate to severe VMS, mean (10 mg E4 QD per os, week 7): −27% | Mean change from baseline in weekly severity of moderate to severe VMS (10 mg E4 QD per os, week 8): −0.6644 | Relative change (% from baseline) in weekly severity of moderate to severe VMS, mean (10 mg E4 QD per os, week 8): −28% | Mean change from baseline in weekly severity of moderate to severe VMS (10 mg E4 QD per os, week 9): −0.6864 | Relative change (% from baseline) in weekly severity of moderate to severe VMS, mean (10 mg E4 QD per os, week 9): −28% | Mean change from baseline in weekly severity of moderate to severe VMS (10 mg E4 QD per os, week 10): −0.709 | Relative change (% from baseline) in weekly severity of moderate to severe VMS, mean (10 mg E4 QD per os, week 10): −29% | Mean change from baseline in weekly severity of moderate to severe VMS (10 mg E4 QD per os, week 11): −0.666 | Relative change (% from baseline) in weekly severity of moderate to severe VMS, mean (10 mg E4 QD per os, week 11): −25% | Mean change from baseline in weekly severity of moderate to severe VMS (10 mg E4 QD per os, week 12): −0.6941 | Relative change (% from baseline) in weekly severity of moderate to severe VMS, mean (10 mg E4 QD per os, week 12): −28% | Difference with placebo, LS adjusted mean, absolute change in weekly severity of moderate to severe VMS (10 mg E4 vs placebo, week 4): −0.1547 | Difference with placebo, LS adjusted mean, relative change in weekly severity of moderate to severe VMS (10 mg E4 vs placebo, week 4): −0.06058 | Difference with placebo, LS adjusted mean, absolute change in weekly severity of moderate to severe VMS (10 mg E4 vs placebo, week 12): −0.03512 | Difference with placebo, LS adjusted mean, relative change in weekly severity of moderate to severe VMS (10 mg E4 vs placebo, week 12): −0.006415 | LS adjusted mean change from baseline in weekly severity of moderate to severe VMS (15 mg E4, week 4): −0.5888 | LS adjusted mean relative change from baseline in weekly severity of moderate to severe VMS (15 mg E4, week 4): −0.2427 | LS adjusted mean relative change from baseline in weekly severity of moderate to severe VMS (15 mg E4, week 12): −0.4375 | Mean change from baseline in weekly severity of moderate to severe VMS (15 mg E4 QD per os, week 1): −0.072 | Relative change (% from baseline) in weekly severity of moderate to severe VMS, mean (15 mg E4 QD per os, week 1): −3% | Mean change from baseline in weekly severity of moderate to severe VMS (15 mg E4 QD per os, week 2): −0.2853 | Relative change (% from baseline) in weekly severity of moderate to severe VMS, mean (15 mg E4 QD per os, week 2): −12% | Mean change from baseline in weekly severity of moderate to severe VMS (15 mg E4 QD per os, week 3): −0.4842 | Relative change (% from baseline) in weekly severity of moderate to severe VMS, mean (15 mg E4 QD per os, week 3): −20% | Mean change from baseline in weekly severity of moderate to severe VMS (15 mg E4 QD per os, week 4): −0.5897 | Relative change (% from baseline) in weekly severity of moderate to severe VMS, mean (15 mg E4 QD per os, week 4): −24% | Mean change from baseline in weekly severity of moderate to severe VMS (15 mg E4 QD per os, week 5): −0.7432 | Relative change (% from baseline) in weekly severity of moderate to severe VMS, mean (15 mg E4 QD per os, week 5): −31% | Mean change from baseline in weekly severity of moderate to severe VMS (15 mg E4 QD per os, week 6): −0.7035 | Relative change (% from baseline) in weekly severity of moderate to severe VMS, mean (15 mg E4 QD per os, week 6): −30% | Mean change from baseline in weekly severity of moderate to severe VMS (15 mg E4 QD per os, week 7): −0.8112 | Relative change (% from baseline) in weekly severity of moderate to severe VMS, mean (15 mg E4 QD per os, week 7): −34% | Mean change from baseline in weekly severity of moderate to severe VMS (15 mg E4 QD per os, week 8): −0.8854 | Relative change (% from baseline) in weekly severity of moderate to severe VMS, mean (15 mg E4 QD per os, week 8): −37% | Mean change from baseline in weekly severity of moderate to severe VMS (15 mg E4 QD per os, week 9): −0.9092 | Relative change (% from baseline) in weekly severity of moderate to severe VMS, mean (15 mg E4 QD per os, week 9): −38% | Mean change from baseline in weekly severity of moderate to severe VMS (15 mg E4 QD per os, week 10): −0.9628 | Relative change (% from baseline) in weekly severity of moderate to severe VMS, mean (15 mg E4 QD per os, week 10): −40% | Mean change from baseline in weekly severity of moderate to severe VMS (15 mg E4 QD per os, week 11): −1.0123 | Relative change (% from baseline) in weekly severity of moderate to severe VMS, mean (15 mg E4 QD per os, week 11): −42% | Mean change from baseline in weekly severity of moderate to severe VMS (15 mg E4 QD per os, week 12): −1.0425 | Relative change (% from baseline) in weekly severity of moderate to severe VMS, mean (15 mg E4 QD per os, week 12): −44% | Difference with placebo, LS adjusted mean, absolute change in weekly severity of moderate to severe VMS (15 mg E4 vs placebo, week 4): −0.261 | Difference with placebo, LS adjusted mean, relative change in weekly severity of moderate to severe VMS (15 mg E4 vs placebo, week 4): −0.1017 | Difference with placebo, LS adjusted mean, absolute change in weekly severity of moderate to severe VMS (15 mg E4 vs placebo, week 12): −0.3838 | Difference with placebo, LS adjusted mean, relative change in weekly severity of moderate to severe VMS (15 mg E4 vs placebo, week 12): −0.1577 | Reduction in the severity of moderate to severe VMS when compared to baseline (15 mg daily dose): over 40%
